The results in this text go back to ChEMBL document CHEMBL4819081 (Eur J Med Chem, 2021).

pIC50: −log10 of the molar value. The source made the active and inactive calls. The calls are words filed in the database; no cut-off is given here.

One experiment concerns NCI-H1299. In words: Potency index, ratio of IC50 for Palbociclib to IC50 for test compound for antiproliferative activity against human H1299 cells assessed as reduction in cell viability after 72 hrs by MTT assay. It counts as functional. In general terms: Formazan colour is commonly taken as a measure of viable cells.
Experiment [1] deals with MDA-MB-231. In words: Induction of cell cycle arrest in human MDA-MB-231 cells assessed as accumulation at G1 phase at 1.5 uM after 12 hrs by propidium iodide staining-based flow cytometric analysis (reference value: 53.11%). It counts as functional. On the technique in general: A flow cytometer gives signals particle by particle.
For experiment [2], the system named is MDA-MB-231. Put plainly: Induction of cell cycle arrest in human MDA-MB-231 cells assessed as accumulation at G2 phase at 1.5 uM after 12 hrs by propidium iodide staining-based flow cytometric analysis (reference value: 21.11%). It counts as functional.
Experiment [3] concerns the target Cyclin-dependent kinase 4/cyclin D1 (Homo sapiens) (UniProt P11802+P24385). Put plainly: Inhibition of CDK4/Cyclin D1 (unknown origin) at 20 nM using ATP by mobility shift assay. In kind it is protein-complex assay.
The test system of experiment [4] is MDA-MB-231. Put plainly: Induction of cell cycle arrest in human MDA-MB-231 cells assessed as accumulation at G1 phase at 0.375 uM after 12 hrs by propidium iodide staining-based flow cytometric analysis (reference value: 53.11%). It counts as functional.
In experiment [5] the test system is MDA-MB-231. Put plainly: Induction of apoptosis in human MDA-MB-231 cells assessed as early apoptotic cells at 5 uM after 24 hrs by Annexin-V/PI-staining based flow cytometry (reference value: 2.67%). In kind it is functional.
The test system of experiment [6] is MDA-MB-231. In words: Induction of apoptosis in human MDA-MB-231 cells assessed as early apoptotic cells at 2.5 uM after 24 hrs by Annexin-V/PI-staining based flow cytometry (reference value: 2.67%). In kind it is functional.
In another experiment the target is CDK2/Cyclin A2 (Homo sapiens, UniProt P24941). In words: Inhibition of CDK2/cyclin A2 (unknown origin). It counts as protein-complex assay.
Experiment [7] has as its system MDA-MB-231. In words: Induction of apoptosis in human MDA-MB-231 cells assessed as early apoptotic cells at 1.25 uM after 24 hrs by Annexin-V/PI-staining based flow cytometry (reference value: 2.67%). It counts as functional.
The test system of experiment [8] is MDA-MB-231. Put plainly: Inhibition of clone formation in human MDA-MB-231 cells at 0.16 uM after 14 days by crystal violet staining based-colony formation assay. The note with it: time 14.0 day. In kind it is functional, cell-based.
Experiment [9] has as its system MDA-MB-231. Put plainly: Antitumor activity against human MDA-MB-231 cells xenografted in BALB/c mouse assessed as tumor growth inhibition at 40 mg/kg, po measured every 3 days for 21 days. The note with it: MDA-MB-231, po, 504 h, time 21 day, read-out: TGI. In kind it is functional. For orientation: A xenograft is tissue or cells of one species grown in another, often human tumour cells in immunodeficient mice.

Experiment [10] has as its system MDA-MB-231. Put plainly: Induction of cell cycle arrest in human MDA-MB-231 cells assessed as accumulation at S phase at 0.75 uM after 12 hrs by propidium iodide staining-based flow cytometric analysis (reference value: 23.71%). In kind it is functional.
The next experiment concerns MCF7. Put plainly: Antiproliferative activity against human MCF7 cells assessed as reduction in cell viability after 72 hrs by MTT assay. It counts as functional, cell-based. The note with it: MCF7, 72 h.
For experiment [11], the system named is MDA-MB-231. In words: Antiproliferative activity against human MDA-MB-231 cells assessed as reduction in cell viability after 72 hrs by MTT assay. To be noted: MDA-MB-231, 72 h. In kind it is functional, cell-based.
Experiment [12] deals with MDA-MB-231. Put plainly: Induction of apoptosis in human MDA-MB-231 cells assessed as late apoptotic cells at 0.625 uM after 24 hrs by Annexin-V/PI-staining based flow cytometry (reference value: 3.02%). In kind it is functional.

For orientation: inhibition means the percentage by which the read-out fell short of the control. As usually defined, the pIC50 is −log10 of the IC50, conventionally taken in molar units. As for `CC(=O)c1c(C)c2cnc(Nc3ccc(N4CCN(C(=O)CCl)CC4)cn3)nc2n(C2CCCC2)c1=O`, the “Ratio IC50” value with NCI-H1299 stood at 4. Further, the Activity in the experiment with MDA-MB-231 [1] amounted to 71.12%; in the experiment with MDA-MB-231 [2], 19.72%; with MDA-MB-231 [4], 68.34%; in the experiment with MDA-MB-231 [5] it was 44.02%; in the experiment on MDA-MB-231 [6] it was 17.09%; in the experiment on MDA-MB-231 [7], 7.72%. Moreover, the Activity was found to be 11.05% in the experiment with MDA-MB-231 [10] and 3.82% with MDA-MB-231 [12]. Also, in experiment [3], the inhibition came to 61.7%. Moreover, the negative-log IC50 (pIC50) is 5.12 at CDK2/Cyclin A2, 6.42 with MCF7 and 5.92 in the experiment with MDA-MB-231 [11]. Moreover, the inhibition result with MDA-MB-231 [8] was “Active”. Moreover, the inhibition in vivo at 40 mg/kg in the experiment on MDA-MB-231 [9] was found to be 93.5%.
